Here are results for eight molecules from patent US7057048B2, “Androgen receptor antagonists” (Warner Lambert Company LLC, priority 2003, dated 2006).

Broadly, the pIC50 is the negative decadic logarithm of the IC50, by convention in mol/L. Low readings indicate a large IC50, high ones a small IC50.

pIC50: −log10 of the molar value.

The experiment has as its target T1, androgen receptor (Homo sapiens, UniProt P10275).
T1 sequence (P10275 1-920 Q868H): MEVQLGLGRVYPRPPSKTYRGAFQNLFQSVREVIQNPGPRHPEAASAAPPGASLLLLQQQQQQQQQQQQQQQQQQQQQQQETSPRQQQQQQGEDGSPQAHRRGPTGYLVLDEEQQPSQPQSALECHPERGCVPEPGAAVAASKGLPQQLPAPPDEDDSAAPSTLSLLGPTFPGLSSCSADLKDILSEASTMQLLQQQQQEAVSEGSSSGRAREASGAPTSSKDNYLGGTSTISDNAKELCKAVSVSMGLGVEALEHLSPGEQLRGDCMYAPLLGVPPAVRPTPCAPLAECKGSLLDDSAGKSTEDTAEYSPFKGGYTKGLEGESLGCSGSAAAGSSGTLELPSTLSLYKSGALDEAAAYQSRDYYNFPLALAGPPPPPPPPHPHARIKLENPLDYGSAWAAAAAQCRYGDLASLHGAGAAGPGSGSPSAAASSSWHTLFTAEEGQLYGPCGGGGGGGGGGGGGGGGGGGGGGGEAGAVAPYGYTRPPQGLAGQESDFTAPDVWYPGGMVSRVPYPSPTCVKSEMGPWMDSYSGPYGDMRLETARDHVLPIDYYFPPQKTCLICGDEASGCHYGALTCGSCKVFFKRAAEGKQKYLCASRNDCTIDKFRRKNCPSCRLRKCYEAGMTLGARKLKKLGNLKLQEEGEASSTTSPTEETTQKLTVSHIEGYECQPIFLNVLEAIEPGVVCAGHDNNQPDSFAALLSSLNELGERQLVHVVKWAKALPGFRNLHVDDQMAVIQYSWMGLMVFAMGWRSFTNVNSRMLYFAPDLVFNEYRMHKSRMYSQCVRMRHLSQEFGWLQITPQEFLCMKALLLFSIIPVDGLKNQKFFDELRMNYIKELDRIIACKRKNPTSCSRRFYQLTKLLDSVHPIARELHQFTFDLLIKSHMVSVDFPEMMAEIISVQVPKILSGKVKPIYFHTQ
The experiment in a line: AR Antagonist Cell Assay (MMTV-luciferase reporter, DHT-stimulated). Format: cell-based. The conditions noted are these: MDA-MB453-MMTV clone 54-19 cells, inhibition of induction by 100 pM DHT, 17 hr. As for the experimental part: The compounds ability to antagonize the effects of androgen on the androgen receptor were determined in the protocol described immediately below.
Experimental Procedure for AR Antagonist Cell Assay
Cell line: MDA-MB453-MMTV clone 54-19. This cell line is a stable transfected cell line with MDA-MB453 cell background (human breast tumor cell expressing high level of androgen receptor). A MMTV minimal promoter containing ARE was first cloned in front of a firefly luciferase reporter gene. Then the cascade was cloned into transfection vector pUV120puro. Electroporation method was used for transfecting MDA-MB-453 cell. Puromycin resistant stable cell line was selected.
Cell Culture Media and Reagents:
Culture medium: DMEM (high glucose, Gibco cat #: 11960-044), 10% FBS, and 1% L-glutamine
Plating medium: DMEM (phenol red free), 10% charcoal treated HyClone serum, 1% L-glutamine
Assay medium: DMEM (phenol red free), 1% charcoal treated HyClone serum, 1% L-glutamine, and 1% penicillin/streptomycin
3×luciferase buffer: 2% beta-mercaptoethanol, 0.6% ATP, 0.0135% luciferine in cell lysis buffer
• 1. Cells are maintained in culture medium, splitting cells when they reach 80–90% confluence • 2. To test compounds, 10,000 cells/well are plated to opaque 96 cell culture plate in 100 ul/well plating medium, culture for overnight at 37° C. in cell culture incubator • 3. Carefully remove plating medium, then add 80 ul/well of pre-warmed assay medium, add 10 ul/well testing compound (final concentration at 10 uM or 1 uM), incubate at 37° C. for 30 minutes • 4. Add 10 ul/well freshly prepared DHT (final concentration at 100 pM) to each well, incubate at 37° C. for 17 hr (overnight) • 5. Add 50 ul/well 3×luciferase buffer, incubate at room temperature for 5 minutes, then count on Luminometer
The fold induction over background by 100 pM DHT in the absence of testing compounds is standardized as 100% and experimental result is expressed as percentage of inhibition by testing compounds.
(In general: A reporter such as luciferase makes a cellular process visible.)

As for `O=c1cc(C(F)(F)F)c2cc(Cc3ccc(S(=O)(=O)N4CCC(O)CC4)cc3)ccc2o1` [Example 56, 6-[4-(4-Hydroxypiperidine-1-sulfonyl)benzyl]-4-trifluoromethylchromen-2-one], the pIC50 was < 5.00.
`O=c1cc(C(F)(F)F)c2cc(Cc3ccc(S(=O)(=O)N4CCCCCC4)cc3)ccc2o1` [Example 57, 6-[4-(Azepane-1-sulfonyl)benzyl]-4-trifluoromethylchromen-2-one] had a pIC50 of 5.17.
Turning to `CC1CCCCN1S(=O)(=O)c1ccc(Cc2ccc3oc(=O)cc(C(F)(F)F)c3c2)cc1` (centres unmarked) [Example 58, 6-[4-(2-Methylpiperidine-1-sulfonyl)benzyl]-4-trifluoromethylchromen-2-one], the pIC50 is 5.01. This pIC50 and that of the molecule before are within 0.2 log units of each other.
As for `CC1CN(S(=O)(=O)c2ccc(Cc3ccc4oc(=O)cc(C(F)(F)F)c4c3)cc2)CC(C)O1` (centres unmarked) [Example 60, 6-[4-(2,6-Dimethylmorpholine-4-sulfonyl)benzyl]-4-trifluoromethylchromen-2-one], the figure is 6.28; as for `CCOCCN1CCN(S(=O)(=O)c2ccc(Cc3ccc4oc(=O)cc(C(F)(F)F)c4c3)cc2)CC1` [Example 62, 6-{4-[4-(2-Ethoxyethyl)piperazine-1-sulfonyl]benzyl}-4-trifluoromethylchromen-2-one], < 5.00.
The same measure for `O=c1cc(C(F)(F)F)c2cc(Cc3ccc(S(=O)(=O)N4CCCCCCC4)cc3)ccc2o1` [Example 63, 6-[4-(Azocane-1-sulfonyl)benzyl]-4-trifluoromethylchromen-2-one]: < 5.00; for `O=c1cc(C(F)(F)F)c2cc(Cc3ccc(S(=O)(=O)N4CCC(CO)CC4)cc3)ccc2o1` [Example 64, 6-[4-(4-Hydroxymethyl-piperidine-1-sulfonyl)benzyl]-4-trifluoromethylchromen-2-one]: 5.60; for `O=c1cc(C(F)(F)F)c2cc(Cc3ccc(S(=O)(=O)N4CCCc5ccccc54)cc3)ccc2o1` [Example 65, 6-[4-(3,4-Dihydro-2H-sulfonyl)benzyl]-4-trifluoromethylchromen-2-one]: 5.23.
